Measurements reported in patent publication US10226451B2, “Substituted bicyclic compounds as bromodomain inhibitors” (ZENITH EPIGENETICS LTD, priority 2013, dated 2019).

How the values were obtained:
[1] = target: T1, Brd4 bromodomain 1 (BRD4(1)) (Homo sapiens, UniProt O60885); assay: Inhibition of tetra-acetylated histone H4 binding to Brd4 bromodomain 1 (HTRF/FRET); details: tetra-acetylated histone H4 peptide, His-tagged bromodomain 200 nM, 2 h
T1 construct: made in house; host or cells: E. coli BL21(DE3)
Summary of the method: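 N-terminally His-tagged bromodomain (200 nM), expressed in E. coli and purified by Ni affinity and size exclusion, was incubated with biotinylated tetra-acetylated H4 peptide (25-50 nM), Eu-cryptate streptavidin and XL665 anti-His in HEPES pH 7.4 buffer with 0.2% DMSO. Reactions ran 2 h at room temperature. IC50 came from the 665/620 nm fluorescence decrease.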

[2] = tested on: c-myc in Human AML MV4-11 cells; assay: Inhibition of c-MYC expression (mRNA, real-time PCR) in MV4-11 cells; type: cell-based; details: 3 h, mRNA by real-time PCR
Summary of the method: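 Cells at 2.5×10^4 per well in IMDM/10% FBS were treated with rising compound concentrations or 0.1% DMSO for 3 h at 37° C., in triplicate. cMYC mRNA was measured by one-step TaqMan qRT-PCR, normalised to cyclophilin, and expressed as fold expression relative to control.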

Human AML MV-4-11 cells = assay: Inhibition of cell proliferation in MV4-11 cells (CellTiter Aqueous One); type: cell-based; details: 72 h
Summary of the method: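 MV4-11 cells at 5×10^4/well in IMDM with 10% FBS were exposed to increasing compound concentrations or 0.1% DMSO, in triplicate, for 72 h at 37 °C. A further 3-4 h with CellTiter Aqueous One reagent followed. A490, blank-corrected and expressed relative to DMSO, gave IC50.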

hIL-6 mRNA in U937 cells = assay: Inhibition of hIL-6 mRNA transcription in LPS-stimulated U937 cells; type: cell-based; details: Homo sapiens, U-937, PMA-differentiated U937 cells, LPS 1 ug/mL, 3 h, read-out: IL-6 activity
Summary of the method: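 U937 cells were differentiated to macrophages with 60 ng/mL PMA for 3 days, pretreated 1 h with compound in 0.1% DMSO, then stimulated with 1 ug/mL E. coli LPS for 3 h at 37° C. hIL-6 mRNA was quantified by one-step TaqMan RT-qPCR, normalized to cyclophilin, as fold expression versus control.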

[3] = tested on: hIL-17 mRNA in human peripheral blood mononuclear cells; assay: Inhibition of hIL-17 mRNA transcription in OKT3-stimulated PBMC; type: cell-based; details: OKT3 antibody, 6 h, read-out: IL-17 activity
Procedure: In this example, hIL-17 mRNA in human peripheral blood mononuclear cells were quantitated to measure the transcriptional inhibition of hIL-17 when treated with a compound of the present disclosure.
Human peripheral blood mononuclear cells were plated (2.0×10^5 cells per well) in a 96-well plate in 45 μL OpTimizer T Cell expansion media (Life Technologies) containing 20 ng/ml IL-2 and penicillin/streptomycin. The cells were treated with increasing concentrations of the test compound or DMSO (0.1%), and incubated at 37° C., 5% CO2 for 1 h before addition of 10× stock OKT3 antibody at 10 ug/ml in media. Triplicate wells were used for each concentration. Cells were incubated at 37° C., 5% CO2 for 6 h before the cells were harvested. At time of harvest, cells were pelleted by centrifugation at 800 rpm for 5 min. Cells were harvested using the mRNA Catcher PLUS kit according to manufacturer's instructions. The eluted mRNA was then used in a one-step quantitative real-time PCR reaction, using components of the RNA UltraSense™ One-Step Kit (Life Technologies) together with Applied Biosystems TaqMan® primer-probes for hIL-17 and Cyclophilin. Real-time PCR plates were run on a ViiA™7 real time PCR machine (Applied Biosystems), data was analyzed, normalizing the Ct values for hIL-17 to an internal control, prior to determining the fold induction of each unknown sample, relative to the control.

[4] = tested on: hApoA-I mRNA in Huh7 cells; assay: Up-regulation of hApoA-1 mRNA transcription in Huh7 cells; type: cell-based, Human; details: EC170, Huh7 cells, 48 h
Procedure: In this example, hApoA-I mRNA in tissue culture cells was quantitated to measure the transcriptional up-regulation of hApoA-I when treated with a compound of the present disclosure.
Huh7 cells (2.5×10^5 per well) were plated in a 96-well plate using 100 μL DMEM per well, (Gibco DMEM supplemented with penicillin/streptomycin and 10% FBS), 72 h before the addition of the compound. The cells are treated with increasing concentrations of the compound or DMSO (0.1%), and incubated at 37° C., 5% CO2 for 48 h. Spent media was removed from the Huh-7 cells and placed on ice for immediate use with the “LDH cytotoxicity assay Kit II” from Abcam. The cells remaining in the plate were rinsed with 100 μL PBS. Cells were harvested using the mRNA Catcher PLUS kit according to manufacturer's instructions. The eluted mRNA was then used in a one-step quantitative real-time PCR reaction, using components of the RNA UltraSense™ One-Step Kit (Life Technologies) together with Applied Biosystems TaqMan® primer-probes for hApoA-I and Cyclophilin. Real-time PCR plates were run on a ViiA™7 real time PCR machine (Applied Biosystems), data was analyzed, normalizing the Ct values for hApoA-1 to an internal control, prior to determining the fold induction of each unknown sample, relative to the control.

| SMILES | IC50 [1] [nM] | IC50 [2] [nM] | IC50 (Human AML MV-4-11 cells) [nM] | IC50 (hIL-6 mRNA in U937 cells) [nM] | IC50 [3] [nM] | ApoA-1 activity [4] |
| --- | --- | --- | --- | --- | --- | --- |
| Cc1nn(C)cc1-c1cc(-c2c(C)noc2C)cc2[nH]c(=O)n(C)c12 [Example Compound 7, 7-(1,3-dimethyl-1H-pyrazol-4-yl)-5-(3,5-dimethylisoxazol-4-yl)-1-methyl-1H-benzo[d]imidazol-2(3H)-one] | ≤ 300 | ≤ 300 | ≤ 300 | ≤ 300 | 300 to 3000 | +++ (EC170 value less than or equal to 0.3 μM were deemed to be highly active (+++)) |
| COc1ncccc1-c1cc(-c2c(C)noc2C)cc2[nH]c(=O)n(C)c12 [Example Compound 13, 5-(3,5-dimethylisoxazol-4-yl)-7-(2-methoxypyridin-3-yl)-1-methyl-1H-benzo[d]imidazol-2(3H)-one] | ≤ 300 | ≤ 300 | 300 to 3000 | 300 to 3000 | 300 to 3000 | +++ (EC170 value less than or equal to 0.3 μM were deemed to be highly active (+++)) |
